Reference: US5013724A, “Process for the sulfation of glycosaminoglycans, the sulfated glycosaminoglycans and their biological applications” (Sanofi Societe Anonyme, priority 1986, dated 1991)

What was measured:
[1] = system: thrombus formation; assay: anti-thrombotic activity in vivo in the rabbit, Wessler model (human thromboplastin as thrombogenic agent); conditions: dose of 100 μg/kg
Protocol: (d) anti-thrombotic activity in vivo in the rabbit, according to the model of Wessler (such as that described by Wessler, S., Reimer, S. M. and Sheps, M. C., in J. Appl. Physiol. 14 (6), 943-946, 1959).
The test substance is injected into the carotid artery, at doses varying from 10 to 500 μg/kg, 3 mn before the administration of the thrombogenic agent (human thromboplastin).
The result is expressed as percentage of inhibition of thrombus formation.

[2] = system: blood coagulation; assay: coagulation time by the APTT method; assay type: biochemical; conditions: Experiment 1
Protocol: (c) measurement of the coagulation time by the APTT method (as described in Caen, J., Larrieu, M. J., and Samama, in Hemostase, paris, Expansion Scientifique Francaise, 1968, pp 133-135).
In the present instance, the concentration of the product to be tested necessary for a doubling of the coagulation time is determined.
The result is expressed in μg of substance tested per ml.

[3] = system: plasma; assay: additional experiments in plasma on cofactor dependence
[4] = system: factor IIa (thrombin); assay: inhibitory activity towards factor IIa (thrombin) in the presence of AT-III; assay type: biochemical; conditions: Experiment 1
Protocol: (§1) (b) inhibitory activity towards the activated factor II (factor IIa) or thrombin.
(§2) The results are expressed in μg of product per ml.
(§3) In this model system, the inhibition of factor IIa is determined by measuring the IC 50 of the test substances in the presence of AT-III and HC II.

[5] = system: factor IIa (thrombin); assay: inhibitory activity towards factor IIa (thrombin) in the presence of HC II; assay type: biochemical; conditions: Experiment 1
Protocol: as §1, §2, §3

Dermatan sulfate
prevention of thrombus formation [1]: ~40%
activity in the APTT model (in words) [2]: sursulfation increases the activity
Concentration necessary to double the coagulation time ([2]; APTT method): 50 µg/mL
cofactor dependence of the action in plasma [3]: totally dependent on HC 11
Anti-IIa activity, AT-III, IC 50 [4]: 100 µg/mL
Anti-IIa activity, HC II, IC 50 [5]: 5.8 µg/mL
